The values that follow come from patent US10945989B2, “Perinatal treatment with a flavonoid agonist of the TrkB receptor for BDNF rescues neurogenesis and behavior in the Ts65Dn mouse model of DS” (ALMA MATER STUDIORUM—Universita' di Bologna, priority 2017, dated 2021).

One series relates to cultures of NPCs. As to the kind of experiment: Apoptotic cells in NPC cultures. The format is cell-based, mouse. Particulars: data not shown.
A short description of series [1]: Prenatal treatment: body and brain weight of P2 mice. Particulars: P2 Ts65Dn mice, embryonic treatment. It is filed as in vivo, mouse. The procedure: Ts65Dn females (n=4) were bred C57BL/6JEi×C3SnHeSnJ (B6EiC3) F1 males (n=4). Conception was determined by examining the vaginal plug. Pregnant females received a daily subcutaneous injection of either 7,8-DHF (Sigma-Aldrich) in PBS with 2% DMSO (dose: 5 mg/kg) or vehicle from the embryonic (E) day 10 (E10) to the day of delivery (E20/21). […] On postnatal day 2 (P2) the progeny of 7,8-DHF-treated and vehicle-treated females received an intraperitoneal injection (150 μg/g body weight) of BrdU (Sigma) in 0.9% NaCl solution and were killed after 2 h (on P2; 4-8 animals for each group). Vehicle-treated females and their progeny will be called hereafter untreated mice. The body weight of P2 mice was recorded prior to sacrifice. After sacrifice, brain was excised and weighed.

The conditions of series [2]: Liu et al., 2010 and 2013; cited from earlier work.
The test system of series [3] is NPCs from the SVZ of Ts65Dn mice. Put plainly: Neuron maturation: cells exhibiting neuritic processes, SVZ NPCs. The note with it: 96 h, vs standard medium. It is filed as cell-based, mouse. The protocol: (§1) Cells were isolated from the subventricular zone (SVZ) of the lateral ventricle and the subgranular zone (SGZ) of the hippocampal dentate gyrus (DG) of newborn (P1-P2) euploid and Ts65Dn mice. Briefly, brains were removed, the SVZ and SGZ regions were isolated and individually collected in ice-cold PIPES buffer pH 7.4. After centrifugation, tissue was digested for 10 min at 37° C. using Trypsin/EDTA 0.25% (Life Technologies) aided by gentle mechanical dissociation. Cell suspension from each individual mouse was plated onto 25 cm^2 cell-culture flask (Thermo Fisher Scientific) and cultured as floating neurospheres in medium containing basic fibroblast growth factor (bFGF, 10 ng/ml; Peprotech) and epidermal growth factor (EGF, 20 ng/ml; Peprotech) using an established protocol (Meneghini et al., 2014). […] Cell proliferation was quantified as relative luminescence units (RLU) values using Cell Titer-Glo viability assay reagent (Promega) on aVictor^3-V plate reader (PerkinElmer). […] In each experiment, five fields/well (corresponding to about 150-200 cells/well) were counted with a 60× objective by a Leica DMIRB inverted fluorescence microscope. Immunoreactive cells were counted and their percentage over total viable cells was calculated. […]

In the next series the test system is ERK1/ERK2. As to the kind of experiment: Western blot of hippocampal homogenates: ERK1/2 and p-ERK1/2. It is filed as in vivo, mouse. Particulars: for ERK2/ERK1 ratio, mean / p-ERK2/p-ERK1 ratio, mean: hippocampal region. The protocol:
Euploid and Ts65Dn mice received a daily subcutaneous injection (at 9-10 am) of 7,8-DHF (5.0 mg/kg in vehicle: PBS with 1% DMSO) or vehicle from postnatal day 3 (P3) to postnatal day 15. This timing was chosen because it corresponds to that previously used to test the effects of fluoxetine and other pharmacotherapies in the neonate Ts65Dn mouse (Bianchi et al., 2010b; Giacomini et al., 2015; Stagni et al., 2016). Mice that received 7,8-DHF will be called “treated mice” (treated euploid mice: n=25; treated Ts65Dn mice: n=15). Mice that received the vehicle will be called “untreated mice” (untreated euploid mice: n=35; untreated Ts65Dn mice: n=21). […] The brains were excised and cut along the midline. The left hemisphere of a group of mice was fixed by immersion in PFA 4% and frozen, and the left hemisphere of another group of mice was used for Golgi staining. The right hemispheres of all mice was kept at −80° C. and used for western blotting.
In homogenates of the hippocampal formation of P15 mice, total proteins were obtained as previously described (Trazzi et al., 2011) and the levels of the following proteins were evaluated: BDNF, TrkB full length (TrkB-FL), phosphorylated TrkB (p-TrkB), the truncated form 1 of the TrkB receptor (TrkB-T1), phosphorylated ERK1 (p-ERK1), phosphorylated ERK2 (p-ERK2), ERK1, ERK2, synaptophysin (SYN), GAPDH and α-Tubulin using the antibodies reported in Table 1. Densitometric analysis of digitized images with ChemiDoc XRS+ was performed with Image Lab software (Bio-Rad Laboratories, Hercules, Calif., USA) and intensity for each band was normalized to the intensity of the corresponding GAPDH or α-Tubulin band.

Series [4] relates to NPCs from the SVZ of Ts65Dn mice. Put plainly: Differentiation of NPC cultures (MAP2/Nestin immunolocalization). The format is cell-based, mouse. The note with it: 96 h, differentiating conditions. The protocol: as §1

Consider `O=c1cc(-c2ccccc2)oc2c(O)c(O)ccc12` [7,8-DHF, 7,8-dihydroxyflavone], for which, in the series on cultures of NPCs, the “number of apoptotic cells” value was “no effect of treatment”. The body weight result in series [1] is “did not further reduce the body weight”. The blood-brain barrier penetration result in series [2] is reported as “penetrates the blood-brain barrier”. Further, the “doses that increased the percentage of cells exhibiting neuritic processes” value in series [3] is “higher than 0.3 μM”. In addition, the p-ERK1 levels entry in the series with ERK1/ERK2 (P15 Ts65Dn mice, vs untreated Ts65Dn and untreated euploid mice) is “increase in p-ERK1 levels”. In addition, in the series on ERK1/ERK2 (P15 Ts65Dn mice, vs untreated Ts65Dn mice), the ERK1 levels result was “increase in ERK1 levels”. Besides, the ERK2 levels result with ERK1/ERK2 (P15 Ts65Dn mice, vs untreated counterparts and untreated euploid mice) is reported as “increase in ERK2 levels”; in the series with ERK1/ERK2 (P15 euploid mice, vs untreated counterparts) it was “increase in ERK2 levels”. Further, the p-ERK2 levels entry with ERK1/ERK2 (P15 Ts65Dn mice, vs untreated euploid mice) was “increase in p-ERK2 levels”. Moreover, the “stoichiometry of ERK1/2 and p-ERK1/2” value in the series with ERK1/ERK2 (Ts65Dn mice) is reported as “did not affect their stoichiometry”. Besides, the “ERK2/ERK1 ratio, mean” value in the series with ERK1/ERK2 (Ts65Dn mice, 7,8-DHF P3-P15) was 3.93; in the series with ERK1/ERK2 (euploid mice, 7,8-DHF P3-P15) it was 4.18. For the same molecule, the “p-ERK2/p-ERK1 ratio, mean” value in the series with ERK1/ERK2 (Ts65Dn mice, 7,8-DHF P3-P15) was 2.01; in the series on ERK1/ERK2 (euploid mice, 7,8-DHF P3-P15), 2.32. Further, in series [4], the “percentage of Nestin+/MAP2- cells” value is recorded as “no change”. The “percentage of MAP2+/Nestin− cells” value in series [4] (all concentrations, vs standard medium) was “large increase”.
